How the values were obtained:
B16-F10 cells [1] = assay: MTS cell proliferation assay; format: cell-based, mouse; details: FIG. 1, in vitro
Procedure: MTS: Same numbers of PRAK WT and KO cells were plated on 96-well plates. Cell Titer 96 Aqueous cell proliferation detection solution was added at different time points after the cells adhered to the walls. After incubation at 37° C. for 1 to 4 hours, the absorbance was measured at 490 nm and the cell proliferation curve was drawn.

B16-F10 cells [2] = assay: AnnexinV/7-AAD staining, apoptosis by flow cytometry; format: cell-based, mouse; details: FIG. 2; 0.1 μM and 1 μM, 24 hours
Procedure: AnnexinV/7-AAD staining: Cells were plated on 24-well plates. 0.1 μM and 1 μM of PRAK inhibitor-23 were added for treatment after the cells adhered to the walls. After 24 hours, the cells were harvested for Annexin V/7-AAD staining, and the cell apoptosis was analyzed by flow cytometry.

B16-F10 tumors = assay: Growth of subcutaneously inoculated B16-F10 tumors in C57BL/6 mice; format: in vivo, mouse; details: FIG. 5, 2 mg/kg/d intraperitoneal
Procedure: 3. Effects on tumor growth in situ Experimental procedure: The C57BL/6 female mice of 6 to 8 week old (commercially available, for example, from Charles River) were selected for the experiment. The B16-F10 cells in the logarithmic growth phase were digested, and washed twice with PBS. After counting, the cells were resuspended in PBS at a density of 1.5×10^6/ml. The tumor cells (3×10^5 cells in 200 μL) were subcutaneously inoculated into the lateral ribs of mice. The drug-treated group was intraperitoneally injected with PRAK inhibitor-23 at 2 mg/kg/d.
The long diameter (L) and short diameter (S) of the tumor were measured with vernier calipers every two days, the tumor size was calculated with the formula L×S×S×0.5, and the tumor growth curve was drawn.

[3] = system: spontaneous breast tumors; assay: Incidence and growth of spontaneous breast tumors in MMTV-PyMT mice; format: in vivo, mouse; details: FIG. 12, 1 mg/kg every other day from 12th week, week 15
Procedure: The MMTV-PyMT mice were crossed with PRAK mice to obtain MMTV-PRAK WT and MMTV-PRAK knockout mice. From 8 to 10 weeks, the occurrence of breast tumors was observed. Another group of MMTV-PRAK WT mice were given PRAK inhibitor (1 mg/kg) every other day from the 12th week. At week 15, the mice were sacrificed, breast tumor nodules were counted and weighed, and lung tumor nodules were counted at the same time.

O=C1NCc2cc(-c3cnc(Nc4ccc(N5CCOCC5)cc4)c4nccn34)ccc21 [PRAK inhibitor-23, 5-(8-((4-morpholinylphenyl)amino)imidazo [1,2-a]pyrazin-5-yl) isoindol-1-one]
no significant effect: effect on the proliferation of B16-F10 cells (B16-F10 cells [1]) | effect on the apoptosis of B16-F10 cells (B16-F10 cells [2]) | effect on the growth of subcutaneously inoculated B16-F10 tumors at the injection site (B16-F10 tumors) | effect on the incidence and growth of spontaneous breast tumors [3]

Source: US20210132041A1, “TARGET FOR DRUG TREATMENT OF TUMOR METASTASIS AND USE THEREOF” (PEKING UNIVERSITY, priority 2018, published 2021)
